Assays:
IL-6R [1] = molecular target: T1, IL-6R (Homo sapiens, UniProt P08887); assay: Population pharmacokinetic model: Michaelis coefficient (Km) for target-mediated elimination of Tocilizumab; details: theoretical, from the Km value of Frey et al.
T1 construct: host or cells: population pharmacokinetic models of patients (Frey et al. 2010; Gibiansky and Frey 2012)
T1 sequence (P08887 20-468): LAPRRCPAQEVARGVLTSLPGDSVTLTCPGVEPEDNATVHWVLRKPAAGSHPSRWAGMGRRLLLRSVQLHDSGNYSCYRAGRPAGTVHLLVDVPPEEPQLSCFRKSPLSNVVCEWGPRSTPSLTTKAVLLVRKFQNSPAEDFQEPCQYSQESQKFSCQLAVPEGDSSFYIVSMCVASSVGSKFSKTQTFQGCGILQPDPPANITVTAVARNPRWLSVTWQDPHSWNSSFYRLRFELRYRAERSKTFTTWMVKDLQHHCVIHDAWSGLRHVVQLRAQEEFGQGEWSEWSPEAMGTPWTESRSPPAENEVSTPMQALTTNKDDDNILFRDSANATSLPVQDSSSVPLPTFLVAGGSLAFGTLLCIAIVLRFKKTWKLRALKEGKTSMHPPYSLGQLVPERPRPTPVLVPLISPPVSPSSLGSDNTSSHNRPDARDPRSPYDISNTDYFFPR

[2] = Simulation of serum Tocilizumab concentration with population pharmacokinetic models (Frey et al.; Gibiansky et al.); details: set from the Frey and Gibiansky models
Protocol: (§1) FIG. 5A is a simulation of changes in serum Tocilizumab concentration when Tocilizumab is administered at 8 mg/kg (intravenous administration: IV) on Day 0, based on the population pharmacokinetic model reported in the article by Frey et al. The vertical axis represents the serum Tocilizumab concentration (μg/mL), and the horizontal axis represents the number of days after administration of Tocilizumab.
as §1, with “5B” for “5A”, “(IV)” for “(intravenous administration: IV)”, “Gibiansky” for “Frey”
FIG. 6A is a simulation of changes in serum Tocilizumab concentration when Tocilizumab is intravenously administered (IV) at 8 mg/kg on Day 0, based on the population pharmacokinetic model reported in the article by Frey et al. The vertical axis represents the serum Tocilizumab concentration (μg/mL), and the horizontal axis represents the number of days after administration of Tocilizumab. […]

IL-6R [3] = molecular target: T1, IL-6R; details: cited from earlier work
[4] = system: patients who manifested CRS after ERY974 administration; assay: ERY101EG study: use of Tocilizumab for the treatment of CRS; type: in vivo, human
Protocol: In the ERY101EG study, Tocilizumab was used alone or in combination with a steroid and such for the treatment of CRS in some patients at the discretion of the clinical trial investigator (Table 11). The severity of CRS ranged from Grade 1 to Grade 3. Tocilizumab was administered on the same day as the manifestation of CRS, with the exception of two patients, two cases (cohort 10A, 840010006, 840010007). In all of the Tocilizumab-administered cases, CRS recovered four days after the day of Tocilizumab administration.

In the case of “Tocilizumab: humanized immunoglobulin G1 (IgG1) kappa anti-human IL-6R monoclonal antibody”, the “Serum concentration of Tocilizumab required for binding to 80% or more of IL-6R” value (IL-6R [1]) is given as no less than 10800 ng/mL, the “Estimated effective serum concentration (target concentration) of Tocilizumab” value [2] is given as 10 µg/mL and the “Michaelis coefficient (Km) for target-mediated elimination” value (IL-6R [3]; article by Frey et al., patients with rheumatoid arthritis) is given as 2.7 µg/mL. For the same substance, the “Michaelis coefficient (Km value)” value (IL-6R [3]; article by Gibiansky et al.) was 0.367 µg/mL, the “Recovery from CRS after the day of Tocilizumab administration” value ([4]; all Tocilizumab-administered cases, CRS Grade 1 to Grade 3, alone or with a steroid) was “four” and the “Duration from Tocilizumab administration to recovery from CRS” value (“Duration from Tocilizumab administration” for short) ([4]; patient 840010006, cohort 10A, CRS Grade 3 after 2nd ERY974 (0.81 μg/kg), Tocilizumab 8 mg/kg, 3 days after CRS manifestation) was 4 days. The “Duration from Tocilizumab administration” value ([4]; patient 840010006, cohort 10A, CRS Grade 3 after 3rd ERY974 (0.54 μg/kg), Tocilizumab 8 mg/kg, same day as CRS manifestation) was 3 days, the “Manifestation of CRS after Tocilizumab administration and until the next administration of this agent” value (“Manifestation of CRS” for short) ([4]; patient 840010006, cohort 10A, after 2nd ERY974 (0.81 μg/kg), Tocilizumab 8 mg/kg) was “None” and the “Presence or absence of CRS recurrence” value ([4]; patient 840010006, cohort 10A, 1 further ERY974 administration (0.54 μg/kg) after Tocilizumab 8 mg/kg) was “Present”. For the same substance, the “Duration from Tocilizumab administration” value ([4]; patient 840010007, cohort 10A, CRS Grade 2, Tocilizumab 8 mg/kg, 6 days after CRS manifestation) was 1 days, the “Presence or absence of CRS recurrence” value ([4]; patient 840010007, cohort 10A, 2 further ERY974 administrations (0.54, 0.81 μg/kg) after Tocilizumab 8 mg/kg) was “Absent” and the “Manifestation of CRS” value ([4]; patient 840010007, cohort 10A, Tocilizumab 8 mg/kg) was “None”. The “Duration from Tocilizumab administration” value ([4]; patient 840020017, cohort 8A, CRS Grade 2, Tocilizumab dose not known, same day as CRS manifestation) was 0 days, the “Presence or absence of CRS recurrence” value ([4]; patient 840020017, cohort 8A, 3 further ERY974 administrations (0.36 μg/kg) after Tocilizumab) was “Absent” and the “Manifestation of CRS” value ([4]; patient 840020017, cohort 8A, Tocilizumab dose not known) was “None”. The “Duration from Tocilizumab administration” value ([4]; patient 840020021, cohort 9A, CRS Grade 1, Tocilizumab 4 mg/kg, same day as CRS manifestation) was 0 days, the “Presence or absence of CRS recurrence” value ([4]; patient 840020021, cohort 9A, 9 further ERY974 administrations (0.54 μg/kg) after Tocilizumab 4 mg/kg) was “Absent” and the “Manifestation of CRS” value ([4]; patient 840020021, cohort 9A, Tocilizumab 4 mg/kg) was “None”. The “Duration from Tocilizumab administration” value ([4]; patient 840020022, cohort 9A, CRS Grade 2, Tocilizumab 4 mg/kg, within 2 hours from CRS manifestation) was 0 days, the “Presence or absence of CRS recurrence” value ([4]; patient 840020022, cohort 9A, 3 further ERY974 administrations (0.54 μg/kg) after Tocilizumab 4 mg/kg) was “Absent” and the “Manifestation of CRS” value ([4]; patient 840020022, cohort 9A, Tocilizumab 4 mg/kg) was “None”. For the same substance, the “Duration from Tocilizumab administration” value ([4]; patient 840020023, cohort 9B, CRS Grade 2, Tocilizumab 4 mg/kg, same day as CRS manifestation) was 0 days, the “Presence or absence of CRS recurrence” value ([4]; patient 840020023, cohort 9B, 19 further ERY974 administrations (0.54 μg/kg) after Tocilizumab 4 mg/kg) was “Absent” and the “Manifestation of CRS” value ([4]; patient 840020023, cohort 9B, Tocilizumab 4 mg/kg) was “None”. For the same substance, the “Duration from Tocilizumab administration” value ([4]; patient 840060002, cohort 8B, CRS Grade 2, Tocilizumab 8 mg/kg, same day as CRS manifestation) was 2 days, the “Presence or absence of CRS recurrence” value ([4]; patient 840060002, cohort 8B, 9 further ERY974 administrations (0.36 μg/kg) after Tocilizumab 8 mg/kg) was “Absent” and the “Manifestation of CRS” value ([4]; patient 840060002, cohort 8B, Tocilizumab 8 mg/kg) was “None”.
